{"source": "patent US10363229B2", "about": "“Methods and compositions for the treatment of cancer” (priority 2009, dated 2019)", "key": {"[1]": {"tested_on": "Cloudman S-91 mouse melanoma cells (sub-clone M-3)", "assay": "Annexin V-FITC/propidium iodide apoptosis assay in melanoma cells", "format": "cell-based", "method": "Cloudman S-91 mouse melanoma cells (sub-clone M-3, CCL 53.1; American Type Culture Collection, Rockville, Md.) were grown in RMPI medium supplemented with 10% fetal bovine serum (Invitrogen, Inc) and 5% penicillin-streptomycin (Invitrogen, Inc). Mouse breast cancer cells (66Cl-1; American Type Culture Collection, Rockville, Md.) that are estrogen-receptor negative were grown in DMEM medium supplemented with 10% fetal bovine serum (Invitrogen, Inc) and 5% penicillin/streptomycin (Invitrogen, Inc). Human T-cell leukemic lymphocytes (CEM; American Type Culture Collection, Rockville, Md.) were grown in MEM medium supplemented with 7% fetal calf serum. Cultures were passaged twice a week.\nEarly and late apoptosis was assessed with the Annexin V-FITC Apoptosis Detection Kit from PharMingen (Becton-Dickinson, San Diego, Calif.). Images were obtained at the Center for Cell Analysis and Modeling, University of Connecticut Health Center, Farmington, Conn., with an Axioplan CCD Microscope equipped with a 40×1.3 NA FL objective lens and Photometrics PXL-EEV37 high speed digital cooled CCD camera via Metamorph image acquisition and analysis software (Universal Imaging Corp., Downington, Pa.).\nM3 Cloudman melanoma cells were plated into culture dishes containing RPMI medium. After 24 hour media was changed to control medium (no drug) or to media containing different concentrations of methyl sulfone (1-10% methyl sulfone in RPMI medium). Cells were examined by live cell video microscopy immediately after adding drug and every 24 hours up to 144 hours.\nBriefly, melanoma cells (Cloudman M3 cell line) were plated at 10^5 cells/ml in RPMI medium. After 24 hours, medium was replaced with RPMI containing different concentrations (grams/volume) of MMS, MES and EES. After 24 hours, apoptosis was assayed using the Becton-Dickinson Annexin V-FITC/Propidium Iodide Kit and a Nikon fluorescent microscope as described by the manufacturer."}, "[2]": {"tested_on": "melanoma cells", "assay": "Cell invasion assay (Transwell, ECM gel)", "format": "cell-based, mouse", "settings": "2% methyl sulfone", "method": "Invasion assays were performed in Transwell chambers (Corning). The 8 μm pore membranes of the upper chambers were coated with ECM gel from Engelbreth-Holm-Swarm murine sarcoma (Sigma), diluted 1:6 with RPMI medium +/−2% methyl sulfone, and placed in a well with RPMI medium +/−2% methyl sulfone. Cells (1×10^5 cells/200 μl) were seeded into appropriate upper chambers in RMPI medium+/−2% methyl sulfone. After 20 hours of incubation at 37° C., cells were removed from top surface of the chamber and filters were fixed with 5% glutaraldeyde. Cells on the lower surface of the filter were stained with a 0.5% solution of toluidine blue. Membranes of inserts were removed with a razor, mounted between a glass slide and a coverslip, and held in place with scotch tape. Cells were photographed and counted at the Center for Cell Analysis and Modeling, University of Connecticut Health Center, Farmington, Conn., with an Axioplan CCD Microscope equipped with a 40×1.3 NA FL objective lens and high speed digital cooled CCD camera via Metamorph image acquisition and analysis software (Universal Imaging Corp., Downington, Pa.). All assays were performed in triplicate.\nA second classic characteristic of metastatic cells is their ability to migrate through an extracellular matrix. We determined whether methyl sulfone altered this ability in melanoma cells. […]"}, "[3]": {"tested_on": "actin filaments in melanoma cells", "assay": "Immunofluorescence of actin filaments", "format": "cell-based, mouse", "settings": "2% methyl sulfone, 72 hours", "method": "Cells were plated onto 10-well slides ( ) that were pre-treated with sulfuric acid. After 24 hours, medium was removed and 2% methyl sulfone in medium was added to half the slides; control cells received medium alone. At 72 and 144 hours, cells were washed in 37° C. PBS, pH 7.4, and fixed in 3.7% formaldehyde in PBS for 10 minutes. PBS was used to wash cells three times followed by a wash in 0.1% Triton X-100/PBS for 5 minutes. Cells were again washed three times in PBS, then in 1% BSA/PBS for 20 minutes. Cells were incubated with Rhodamine-labeled Phalloidin (Molecular Probes, Eugene, Oreg.; diluted 1/40 in 1% BSA/PBS) for 20 minutes. After washing three times in PBS, SlowFade was added to each well. Glass coverslips were placed over each slide and sealed with nail polish. Images were visualized using 568-nm excitation on a Perkin Elmer Ultraview RS5 spinning-disk confocal scanning system mounted on a Nikon TE2000 inverted microscope with a 100×1.4 NA Plan Apo oil immersion objective. (William A. Mohler, Ph.D., Director, Spinning Disk Microscope Facility, University of Connecticut Health Center)."}}, "data": [{"substance": "methyl sulfone", "values": [{"measurement": "apoptosis of melanoma cells", "setting": "[1]; 6% methyl sulfone, 24 hours", "result": "induced into apoptosis"}, {"measurement": "apoptosis of M3 cells compared with MES or EES", "setting": "[1]; 24 hours, especially at less than 5%", "result": "significantly less apoptosis"}, {"measurement": "window of concentrations between killing cancer cells and harming normal cells", "setting": "[1]; conclusion from FIGS. 16 and 17", "result": "wide window"}, {"measurement": "methyl sulfone concentration at which melanoma cells became apoptotic", "setting": "[1]; melanoma cells, FIG. 1 legend", "result": "over 2%"}, {"measurement": "cells that migrated through the extracellular matrix", "setting": "[2]", "result": "none and unable to pass through the membrane"}, {"measurement": "distribution of actin filaments", "setting": "[3]", "result": "clearly visible at the cell surface in small protrusions that contacted neighboring cells"}]}]}
